Columns and labels:
[1] = test system: T47D breast epithelial cancer cell line; assay: Proliferation of log-phase cells, T47D; type: cell-based; details: 48 h incubation, 10% FBS-supplemented medium, read-out: IC50 values (drug concentration required to reduce cell growth by 50%)
Protocol: (§1) All the cell lines were grown from frozen stocks originally obtained from ATCC. T47D, MDA-MB-468 and MCF-7 (breast cancer cell lines) were grown in DMEM. SK-N-MC and SK-N-SH (neuroblastoma) were grown in minimum essential medium with non-essential amino acids and Earle's balanced salt solution. All media were supplemented with 10% FBS and antibiotics (Ashagbley, A., Samadder, P., Bittman, R., Erukulla, R. K., Byun, H-S., Arthur, G. (I 996) Anticancer Res. 16, 1813-1818).
(§2) The effect of the ET-16-phosphono-TDBs on cell proliferation was conducted as previously described (Ashagbley, A., Samadder, P., Bittman, R., Erukulla, R. K., Byun, H-S., Arthur, G. (1996) Anticancer Res. 16, 1813-1818; and Lu, X., and Arthur, G. (1992) Cancer Res. 52, 2806-2812). The cells were seeded in 24-well dishes at a density of 20,000 cells/well with 10% FBS-supplemented medium. The cell numbers were monitored daily. […] The cell numbers at the time of addition of the drugs were determined with a Coulter ZM counter. After 48 h incubation, the cell numbers were determined and the increase in cell number over the numbers at the time of the addition of the drugs was determined and expressed as a function of the control cells which received no drug. The viability of the cells was assessed by the ability to exclude trypan blue dye.

[2] = test system: MDA-MB-468 breast epithelial cancer cell line; assay: Proliferation of log-phase cells, MDA-MB-468; type: cell-based; details: 48 h incubation, 10% FBS-supplemented medium, read-out: IC50 values (drug concentration required to reduce cell growth by 50%)
Protocol: as §1, §2

[3] = test system: MCF-7 breast epithelial cancer cell line; assay: Proliferation of log-phase cells, MCF-7; type: cell-based; details: 48 h incubation, 10% FBS-supplemented medium, read-out: IC50 values (drug concentration required to reduce cell growth by 50%)
Protocol: as §1, §2

[4] = test system: SK-N-MC neuroblastoma cell line; assay: Proliferation of log-phase cells, SK-N-MC; type: cell-based; details: 48 h incubation, 10% FBS-supplemented medium, read-out: IC50 values (drug concentration required to reduce cell growth by 50%)
Protocol: as §1, §2

[5] = test system: SK-N-SH neuroblastoma cell line; assay: Proliferation of log-phase cells, SK-N-SH; type: cell-based; details: 48 h incubation, 10% FBS-supplemented medium, read-out: IC50 values (drug concentration required to reduce cell growth by 50%)
Protocol: as §1, §2

[6] = test system: U937 tumor cell line; assay: Growth inhibition (GI50), U937; type: cell-based, human
[7] = test system: HT29 tumor cell line; assay: Growth inhibition (GI50), HT29; type: cell-based, human
[8] = test system: A549 tumor cell line; assay: Growth inhibition (GI50), A549; type: cell-based, human
[9] = test system: MCF7 tumor cell line; assay: Growth inhibition (GI50), MCF7; type: cell-based, human
[10] = test system: MCF7/ADR tumor cell line; assay: Growth inhibition (GI50), MCF7/ADR; type: cell-based, human
[11] = test system: NIH-3T3 normal fibroblast cell line; assay: Growth inhibition (GI50), NIH-3T3; type: cell-based; details: NIH-3T3 normal cell line (murine)
Source text: (§3) For growth inhibitory evaluation, five human tumor cell lines (U937; HT29; A549; MCF7; MCF7/ADR) and two normal fibroblast cell lines (NIH-3T3, murine; WI-38, human) were used. For comparison, the activity of free L-ET18OCH3 and D-ET18OCH3 was examined.

[12] = test system: WI-38 normal fibroblast cell line; assay: Growth inhibition (GI50), WI-38; type: cell-based; details: WI38 normal cell line (human)
Source text: as §3

[13] = test system: normal cell lines as compared to the tumor cell lines; assay: Growth inhibition, normal versus tumor cell lines; type: cell-based; details: normal (NIH-3T3, WI-38) versus tumor cell lines
Source text: as §3

[14] = test system: MAP kinase; assay: MAP kinase phosphorylation in stimulated MCF-7 cells (Western blot); type: cell-based; details: 15 μM preincubation 3 h; insulin- and EGF-stimulated MCF-7 cells
Protocol: (§4) Quiescent MCF-7 cells were preincubated with (“+” in FIGS. 6-8) or without (“−” in FIGS. 6-8) 15 μM of the R or S enantiomer of ET-16-phosphono-TDB (TDB-PC in FIGS. 7-9) in DMEM supplemented with BSA (0.5 mg/mL) for 3 h. The cells were washed twice and stimulated with […] growth factor (EGF) or insulin for various periods. At the end of the incubation, the medium was aspirated, and the cells washed with ice-cold PBS and scraped into ice cold buffer comprising 20 mM Tris-HCl (pH 7.4) 2 mM EGTA, 100 mM β-glycerophosphate, 1 mM Na3VO4, aprotinin (10 μg/mL), leupeptin (10 μg/mL), 0.2 mM aininoethylbenzylsulfonyl fluoride, 0.2 mM benzarnidine, 1 mM dithiothreitol, 1% triton-X-100, and 0.5% NP-40). After ultrasonication, the mixture was centrifuged at 100,000×g for 30 min. The cell lysates were flash frozen and stored at −70° C. until required.
(§5) MAP kinase activity in cell lysates from EGF and insulin-stimulated MCF-7 cells were assessed by Western blot analysis with phospho-specific antibodies according to the instructions provided by the manufacturer (New England Biolabs). PKB/AKT activity in insulin-stimulated MCF-7 cell lysates was also assessed with phospho-specific antibodies by Western blot analysis. Bound antibody was visualized by chemiluminescence using reagents from Boehringer Mannheim and quantitated with a multiimager Fluor S system (BioRad).

[15] = test system: PKB/AKT; assay: PKB/AKT phosphorylation in stimulated MCF-7 cells (Western blot); type: cell-based; details: 15 μM preincubation 3 h; insulin- and EGF-stimulated MCF-7 cells
Protocol: as §4, §5

SMILES | IC50 [1] [µM] | IC50 [2] [µM] | IC50 [3] [µM] | IC50 [4] [µM] | IC50 [5] [µM] | GI50 [6] [µM] | GI50 [7] [µM] | GI50 [8] [µM] | GI50 [9] [µM] | GI50 [10] [µM] | GI50 [11] [µM] | GI50 [12] [µM] | selectivity: GI50 values for the normal cell lines as compared to the tumor cell lines [13] | inhibition of phosphorylation of MAP kinase [14] | inhibition of phosphorylation of PKB [15]
CCCCCCCCCCCCCCCCOC[C@@H](C=CP(=O)([O-])OCC[N+](C)(C)C)OC [(R)-ET-16-phosphono-TDB, 2′-(Trimethylammonio)ethyl 4-(hexadecyloxy)-3-(R)-methoxy-1-butenephosphonate] | > 5 | > 5 | 4.1 | > 5 | 2.5 | 2.2 | 5.9 | 15.3 | 35.1 | > 40 | 77.3 | 57.5 | remarkable selectivity | – | –
CCCCCCCCCCCCCCCCOC[C@H](C=CP(=O)([O-])OCC[N+](C)(C)C)OC [(S)-ET-16-phosphono-TDB, 2′-(Trimethylammonio)ethyl 4-(hexadecyloxy)-3-(S)-methoxy-1-butenephosphonate] | 0.9 | 4.2 | 1.9 | 2.2 | 1.8 | 1.1 | 2.8 | 9 | 32.4 | > 40 | 66.3 | 14.4 | remarkable selectivity | to a greater extent than the less active R enantiomer | to a greater extent than the less active R enantiomer

Reference: patent US7323601B2, “Enanitomers of unsaturated alkyllysophosphonocholines and use as anti-neoplastics” (Research Foundation of the City University of New York, priority 2001, dated 2008)
